In the kinase profiling compilation of Christmann-Franck et al. (2016):

Key:
Experiment in all cases: radiometric filter-binding kinase assay
NEK6 (human) = NEK6 (human) (UniProt Q9HC98)
EPHA4 (human) = EPHA4 (human) (UniProt P54764)
INSRR (human) = INSRR (human) (UniProt P14616)
BTK (human) = BTK (human) (UniProt Q06187)
[1] = test system: RPS6KB1 (human), P23443 [T412E]
MAPK9 (human) = MAPK9 (human) (UniProt P45984); settings: compound 1.0 µM
PIM1 (human) = PIM1 (human) (UniProt P11309)
EPHB4 (human) = EPHB4 (human) (UniProt P54760)
PKN2 (human) = PKN2 (human) (UniProt Q16513)
MYLK (human) = MYLK (human) (UniProt Q15746)
MAP2K2 (human) = MAP2K2 (human) (UniProt P36507)
CDK2 CCNA2 (human) = CDK2 CCNA2 (human) (UniProt P20248+P24941)
PAK6 (human) = PAK6 (human) (UniProt Q9NQU5)
STK3 (human) = STK3 (human) (UniProt Q13188); settings: compound 0.1 µM
TBK1 (human) = TBK1 (human) (UniProt Q9UHD2)
SRPK1 (human) = SRPK1 (human) (UniProt Q96SB4)
PIM2 (human) = PIM2 (human) (UniProt Q9P1W9)
EEF2K (human) = EEF2K (human) (UniProt O00418)
DAPK1 (human) = DAPK1 (human) (UniProt P53355)
IKBKB (human) = IKBKB (human) (UniProt O14920)
PIM3 (human) = PIM3 (human) (UniProt Q86V86)
MAP2K1 (human) = MAP2K1 (human) (UniProt Q02750)
CHEK1 (human) = CHEK1 (human) (UniProt O14757)
CSNK2A1 (human) = CSNK2A1 (human) (UniProt P68400)
GCK (human) = GCK (human) (UniProt Q12851); settings: compound 0.1 µM
[2] = test system: PAK2 (human), Q13177 [T402E]
RPS6KA5 KD1 KD2 (human) = RPS6KA5 KD1 KD2 (human) (UniProt O75582)
MARK4 (human) = MARK4 (human) (UniProt Q96L34); settings: compound 1.0 µM
MAP3K9 (human) = MAP3K9 (human) (UniProt P80192)
MKNK2 (human) = MKNK2 (human) (UniProt Q9HBH9)
TTK (human) = TTK (human) (UniProt P33981)
MARK3 (human) = MARK3 (human) (UniProt P27448)
MAPKAPK2 (human) = MAPKAPK2 (human) (UniProt P49137); settings: compound 1.0 µM
YES1 (human) = YES1 (human) (UniProt P07947)
MAP3K5 (human) = MAP3K5 (human) (UniProt Q99683)
EPHB1 (human) = EPHB1 (human) (UniProt P54762)
Chain of EPHB1 (human) (P54762 whole entry, looked up): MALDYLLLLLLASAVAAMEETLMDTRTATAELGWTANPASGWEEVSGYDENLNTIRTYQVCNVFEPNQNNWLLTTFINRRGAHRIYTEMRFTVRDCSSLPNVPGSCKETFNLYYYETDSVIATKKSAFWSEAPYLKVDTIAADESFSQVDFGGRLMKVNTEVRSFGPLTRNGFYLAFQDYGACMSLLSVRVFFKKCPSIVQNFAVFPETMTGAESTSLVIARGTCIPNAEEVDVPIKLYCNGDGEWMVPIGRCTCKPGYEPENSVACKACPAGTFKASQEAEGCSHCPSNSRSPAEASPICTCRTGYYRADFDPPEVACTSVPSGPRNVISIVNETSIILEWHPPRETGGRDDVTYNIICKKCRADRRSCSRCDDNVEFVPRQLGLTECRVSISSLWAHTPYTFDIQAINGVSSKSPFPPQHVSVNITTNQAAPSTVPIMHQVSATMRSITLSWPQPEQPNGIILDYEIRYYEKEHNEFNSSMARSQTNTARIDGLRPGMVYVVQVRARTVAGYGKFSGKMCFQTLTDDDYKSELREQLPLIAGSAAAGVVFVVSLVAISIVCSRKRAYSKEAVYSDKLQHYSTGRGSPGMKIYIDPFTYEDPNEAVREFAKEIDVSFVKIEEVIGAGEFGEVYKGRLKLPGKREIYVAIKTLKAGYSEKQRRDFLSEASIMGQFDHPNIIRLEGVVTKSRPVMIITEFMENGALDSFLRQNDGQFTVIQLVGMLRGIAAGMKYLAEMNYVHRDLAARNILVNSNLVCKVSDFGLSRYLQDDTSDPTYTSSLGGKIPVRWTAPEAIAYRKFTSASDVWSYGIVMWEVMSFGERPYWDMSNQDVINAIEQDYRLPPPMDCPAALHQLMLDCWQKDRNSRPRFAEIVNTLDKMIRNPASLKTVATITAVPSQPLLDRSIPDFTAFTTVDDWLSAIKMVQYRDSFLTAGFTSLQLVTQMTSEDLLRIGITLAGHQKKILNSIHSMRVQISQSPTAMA

Chain of TBK1 (human) (Q9UHD2 whole entry, looked up): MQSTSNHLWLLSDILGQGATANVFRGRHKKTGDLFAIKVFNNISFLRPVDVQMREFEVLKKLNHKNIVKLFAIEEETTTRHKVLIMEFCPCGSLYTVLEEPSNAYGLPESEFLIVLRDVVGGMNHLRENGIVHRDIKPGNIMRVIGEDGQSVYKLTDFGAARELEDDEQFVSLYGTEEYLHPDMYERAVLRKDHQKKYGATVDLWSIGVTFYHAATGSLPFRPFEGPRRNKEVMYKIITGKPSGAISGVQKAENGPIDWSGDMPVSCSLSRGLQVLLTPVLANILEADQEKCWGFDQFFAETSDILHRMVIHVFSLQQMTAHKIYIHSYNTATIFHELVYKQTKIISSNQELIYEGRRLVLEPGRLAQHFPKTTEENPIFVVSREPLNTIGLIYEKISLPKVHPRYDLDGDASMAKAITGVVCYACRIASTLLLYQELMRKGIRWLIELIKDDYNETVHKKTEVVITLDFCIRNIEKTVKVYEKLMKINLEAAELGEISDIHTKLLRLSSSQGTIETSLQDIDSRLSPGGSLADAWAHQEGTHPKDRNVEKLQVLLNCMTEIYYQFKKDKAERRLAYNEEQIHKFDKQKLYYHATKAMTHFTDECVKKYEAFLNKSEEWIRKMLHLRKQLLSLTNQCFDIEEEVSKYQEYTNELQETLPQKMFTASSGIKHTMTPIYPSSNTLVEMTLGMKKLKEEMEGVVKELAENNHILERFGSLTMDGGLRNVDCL
Chain of YES1 (human) (P07947 whole entry, looked up): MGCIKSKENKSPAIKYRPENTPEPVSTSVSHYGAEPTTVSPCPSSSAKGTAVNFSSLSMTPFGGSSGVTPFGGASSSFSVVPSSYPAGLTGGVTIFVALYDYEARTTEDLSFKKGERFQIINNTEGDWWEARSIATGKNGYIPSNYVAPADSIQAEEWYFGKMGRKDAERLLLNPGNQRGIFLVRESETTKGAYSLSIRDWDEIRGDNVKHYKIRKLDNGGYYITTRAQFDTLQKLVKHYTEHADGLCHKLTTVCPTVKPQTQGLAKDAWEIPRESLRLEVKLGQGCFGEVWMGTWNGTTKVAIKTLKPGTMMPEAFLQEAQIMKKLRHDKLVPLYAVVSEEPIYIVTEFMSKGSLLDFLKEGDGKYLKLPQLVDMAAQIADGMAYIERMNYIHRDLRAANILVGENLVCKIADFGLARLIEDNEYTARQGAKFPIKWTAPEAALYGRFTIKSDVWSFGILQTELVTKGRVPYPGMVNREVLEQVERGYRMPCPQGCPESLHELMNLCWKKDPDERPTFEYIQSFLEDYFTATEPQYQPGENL
Chain of NEK6 (human) (Q9HC98 whole entry, looked up): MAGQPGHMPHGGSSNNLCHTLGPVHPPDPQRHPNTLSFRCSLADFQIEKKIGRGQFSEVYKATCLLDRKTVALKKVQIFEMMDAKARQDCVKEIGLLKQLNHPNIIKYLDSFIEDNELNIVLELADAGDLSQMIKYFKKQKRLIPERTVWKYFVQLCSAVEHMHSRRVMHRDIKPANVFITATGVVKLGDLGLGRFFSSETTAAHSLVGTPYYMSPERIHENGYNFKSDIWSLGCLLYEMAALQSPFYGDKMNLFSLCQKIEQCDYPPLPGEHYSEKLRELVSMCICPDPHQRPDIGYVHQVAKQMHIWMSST
Chain of EPHA4 (human) (P54764 whole entry, looked up): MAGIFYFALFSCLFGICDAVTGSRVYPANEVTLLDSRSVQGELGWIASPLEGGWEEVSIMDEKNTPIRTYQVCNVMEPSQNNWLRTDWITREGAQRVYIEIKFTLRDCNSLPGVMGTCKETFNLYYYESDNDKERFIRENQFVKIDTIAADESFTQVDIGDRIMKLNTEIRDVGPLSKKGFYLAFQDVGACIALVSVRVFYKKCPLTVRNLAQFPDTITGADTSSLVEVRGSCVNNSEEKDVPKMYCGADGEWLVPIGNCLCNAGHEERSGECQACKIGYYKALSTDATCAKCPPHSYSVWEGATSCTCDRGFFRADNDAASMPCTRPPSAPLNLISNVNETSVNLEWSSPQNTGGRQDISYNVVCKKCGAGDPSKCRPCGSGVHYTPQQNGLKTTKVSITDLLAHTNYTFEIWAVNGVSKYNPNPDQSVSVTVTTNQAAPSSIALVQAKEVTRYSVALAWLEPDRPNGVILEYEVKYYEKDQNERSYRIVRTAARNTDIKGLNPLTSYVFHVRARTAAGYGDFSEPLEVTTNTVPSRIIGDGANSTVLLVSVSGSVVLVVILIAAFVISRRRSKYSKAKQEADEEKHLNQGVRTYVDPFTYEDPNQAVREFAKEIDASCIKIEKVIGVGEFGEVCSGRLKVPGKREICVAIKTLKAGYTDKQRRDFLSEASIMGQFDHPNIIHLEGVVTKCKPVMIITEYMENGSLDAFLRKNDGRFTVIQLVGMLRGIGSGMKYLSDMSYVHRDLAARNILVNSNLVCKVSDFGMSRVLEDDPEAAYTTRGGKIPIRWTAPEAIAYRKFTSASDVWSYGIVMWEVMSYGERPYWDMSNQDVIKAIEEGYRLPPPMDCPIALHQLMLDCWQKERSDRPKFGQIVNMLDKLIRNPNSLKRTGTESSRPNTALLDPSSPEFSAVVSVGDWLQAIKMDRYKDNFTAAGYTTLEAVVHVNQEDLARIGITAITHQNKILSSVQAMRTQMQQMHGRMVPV
Chain of PKN2 (human) (Q16513 whole entry, looked up): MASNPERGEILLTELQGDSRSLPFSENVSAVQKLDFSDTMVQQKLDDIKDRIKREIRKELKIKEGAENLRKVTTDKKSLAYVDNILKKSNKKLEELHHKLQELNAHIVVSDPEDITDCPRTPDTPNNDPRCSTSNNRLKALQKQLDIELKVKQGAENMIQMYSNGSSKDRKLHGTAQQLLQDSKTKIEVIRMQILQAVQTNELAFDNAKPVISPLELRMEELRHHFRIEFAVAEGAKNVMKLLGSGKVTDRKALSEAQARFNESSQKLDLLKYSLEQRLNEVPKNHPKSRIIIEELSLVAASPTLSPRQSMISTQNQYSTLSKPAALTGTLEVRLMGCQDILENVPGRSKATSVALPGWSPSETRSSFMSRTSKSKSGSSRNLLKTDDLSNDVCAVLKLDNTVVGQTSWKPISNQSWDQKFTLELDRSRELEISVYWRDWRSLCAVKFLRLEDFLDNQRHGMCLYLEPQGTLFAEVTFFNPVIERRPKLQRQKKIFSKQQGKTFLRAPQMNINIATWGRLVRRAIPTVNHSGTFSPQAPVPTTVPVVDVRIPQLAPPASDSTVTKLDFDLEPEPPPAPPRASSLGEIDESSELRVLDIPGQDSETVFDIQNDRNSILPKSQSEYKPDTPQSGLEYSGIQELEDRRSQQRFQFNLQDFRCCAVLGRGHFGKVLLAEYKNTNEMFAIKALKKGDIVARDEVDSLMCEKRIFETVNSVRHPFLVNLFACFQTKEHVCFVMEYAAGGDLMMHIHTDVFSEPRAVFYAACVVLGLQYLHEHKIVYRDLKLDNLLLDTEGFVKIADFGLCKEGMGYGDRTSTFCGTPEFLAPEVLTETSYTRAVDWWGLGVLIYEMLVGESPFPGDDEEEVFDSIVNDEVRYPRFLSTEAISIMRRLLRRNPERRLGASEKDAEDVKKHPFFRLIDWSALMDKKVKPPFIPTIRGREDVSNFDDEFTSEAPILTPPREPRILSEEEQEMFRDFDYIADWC

SMILES: COc1ccc(-n2ncc3cnc(Nc4cc(OC)c(OC)c(OCCCN5CCN(C)CC5)c4)nc32)cc1
- residual activity (NEK6 (human); compound 0.1 µM): 89%
- residual activity (NEK6 (human); compound 1.0 µM): 59%
- residual activity (EPHA4 (human); compound 0.1 µM): 14%
- residual activity (EPHA4 (human); compound 1.0 µM): 5%
- residual activity (INSRR (human); compound 0.1 µM): 78%
- residual activity (INSRR (human); compound 1.0 µM): 35%
- residual activity (BTK (human); compound 0.1 µM): 22%
- residual activity (BTK (human); compound 1.0 µM): 14%
- residual activity ([1]; compound 0.1 µM): 70%
- residual activity ([1]; compound 1.0 µM): 28%
- residual activity (MAPK9 (human)): 33%
- residual activity (PIM1 (human); compound 0.1 µM): 96%
- residual activity (PIM1 (human); compound 1.0 µM): 62%
- residual activity (EPHB4 (human); compound 0.1 µM): 69%
- residual activity (EPHB4 (human); compound 1.0 µM): 3%
- residual activity (PKN2 (human); compound 0.1 µM): 57%
- residual activity (PKN2 (human); compound 1.0 µM): 27%
- residual activity (MYLK (human); compound 0.1 µM): 100%
- residual activity (MYLK (human); compound 1.0 µM): 72%
- residual activity (MAP2K2 (human); compound 0.1 µM): 55%
- residual activity (MAP2K2 (human); compound 1.0 µM): 28%
- residual activity (CDK2 CCNA2 (human); compound 0.1 µM): 34%
- residual activity (CDK2 CCNA2 (human); compound 1.0 µM): 7%
- residual activity (PAK6 (human); compound 0.1 µM): 62%
- residual activity (PAK6 (human); compound 1.0 µM): 24%
- residual activity (STK3 (human)): 78%
- residual activity (TBK1 (human); compound 0.1 µM): 14%
- residual activity (TBK1 (human); compound 1.0 µM): 8%
- residual activity (SRPK1 (human); compound 0.1 µM): 104%
- residual activity (SRPK1 (human); compound 1.0 µM): 87%
- residual activity (PIM2 (human); compound 0.1 µM): 108%
- residual activity (PIM2 (human); compound 1.0 µM): 106%
- residual activity (EEF2K (human); compound 0.1 µM): 100%
- residual activity (EEF2K (human); compound 1.0 µM): 91%
- residual activity (DAPK1 (human); compound 0.1 µM): 51%
- residual activity (DAPK1 (human); compound 1.0 µM): 15%
- residual activity (IKBKB (human); compound 0.1 µM): 86%
- residual activity (IKBKB (human); compound 1.0 µM): 55%
- residual activity (PIM3 (human); compound 0.1 µM): 91%
- residual activity (PIM3 (human); compound 1.0 µM): 63%
- residual activity (MAP2K1 (human); compound 0.1 µM): 40%
- residual activity (MAP2K1 (human); compound 1.0 µM): 13%
- residual activity (CHEK1 (human); compound 0.1 µM): 72%
- residual activity (CHEK1 (human); compound 1.0 µM): 20%
- residual activity (CSNK2A1 (human); compound 0.1 µM): 33%
- residual activity (CSNK2A1 (human); compound 1.0 µM): 6%
- residual activity (GCK (human)): 29%
- residual activity ([2]; compound 0.1 µM): 50%
- residual activity ([2]; compound 1.0 µM): 14%
- residual activity (RPS6KA5 KD1 KD2 (human); compound 0.1 µM): 76%
- residual activity (RPS6KA5 KD1 KD2 (human); compound 1.0 µM): 34%
- residual activity (MARK4 (human)): 24%
- residual activity (MAP3K9 (human); compound 0.1 µM): 7%
- residual activity (MAP3K9 (human); compound 1.0 µM): 6%
- residual activity (MKNK2 (human); compound 0.1 µM): 67%
- residual activity (MKNK2 (human); compound 1.0 µM): 17%
- residual activity (TTK (human); compound 0.1 µM): 81%
- residual activity (TTK (human); compound 1.0 µM): 64%
- residual activity (MARK3 (human); compound 0.1 µM): 41%
- residual activity (MARK3 (human); compound 1.0 µM): 16%
- residual activity (MAPKAPK2 (human)): 108%
- residual activity (YES1 (human); compound 0.1 µM): 16%
- residual activity (YES1 (human); compound 1.0 µM): 7%
- residual activity (MAP3K5 (human); compound 0.1 µM): 99%
- residual activity (MAP3K5 (human); compound 1.0 µM): 77%
- residual activity (EPHB1 (human); compound 0.1 µM): 8%
- residual activity (EPHB1 (human); compound 1.0 µM): 3%
